GI50 and TGI data for eight molecules are collected here from PubChem BioAssay (NCI).

Test systems include BT-549 breast; CAKI-1 renal; COLO 205 colon; DU-145 prostate; KM12 colon; M14 melanoma; SF-295 CNS; SNB-75 CNS; TK-10 renal; UACC-257 melanoma.
Assay in all cases: growth of human tumour cells (NCI), 48 h

Each structure is given as a SMILES string.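 Each compound was tested at five concentrations against cells in 96-well plates for 48 hours. Here, GI50 denotes the concentration required for 50% inhibition of growth. TGI is the concentration that stops growth completely.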

Consider `COc1cc(Nc2ncc(-c3ccccc3)o2)cc(OC)c1`, for which the GI50 is over 25 µM with BT-549 breast; over 19.2 µM with CAKI-1 renal; over 25 µM in the assay with COLO 205 colon; over 25 µM in the assay on DU-145 prostate; 1.59 µM with KM12 colon; over 25 µM in the assay with M14 melanoma. For the same molecule, the GI50 is over 25 µM in the assay on SF-295 CNS, 3.19 µM in the assay on SNB-75 CNS, over 25 µM in the assay on TK-10 renal and over 25 µM with UACC-257 melanoma. The TGI in the assay on BT-549 breast, in the assay with CAKI-1 renal, with COLO 205 colon, in the assay on DU-145 prostate, in the assay with KM12 colon and in the assay with M14 melanoma was over 25 µM each time. The TGI in the assay on SF-295 CNS, in the assay with SNB-75 CNS, with TK-10 renal and in the assay with UACC-257 melanoma was over 25 µM throughout.

Consider `Cc1cccc2nc3ccccc3c(Nc3ccc(NS(C)(=O)=O)cc3)c12`, for which the GI50 is 14.3 µM in the assay on BT-549 breast; 3.63 µM in the assay on CAKI-1 renal; 7.61 µM with COLO 205 colon; 3.76 µM in the assay on DU-145 prostate; 6.19 µM in the assay with KM12 colon; 9.95 µM in the assay on M14 melanoma. The GI50 with SF-295 CNS is 5.2 µM; in the assay on SNB-75 CNS, 13 µM; with TK-10 renal it was 6.58 µM; in the assay with UACC-257 melanoma, 10.4 µM. Besides, the TGI in the assay with BT-549 breast was found to be 27.7 µM; in the assay on CAKI-1 renal, 19.9 µM; in the assay on COLO 205 colon, 24 µM; in the assay on DU-145 prostate it was 22.6 µM; in the assay with KM12 colon it was 22.4 µM; with M14 melanoma, 23 µM. The TGI amounted to 47.5 µM in the assay with SF-295 CNS, 52.2 µM with SNB-75 CNS, 21 µM in the assay on TK-10 renal and 22.9 µM with UACC-257 melanoma.

Turning to `CC1CC[P+](c2ccccc2)(c2ccccc2)c2c1ccc1ccccc21` (stereo unspecified), the TGI in the assay on BT-549 breast is 6.68 µM; with CAKI-1 renal, 32.6 µM; with DU-145 prostate it was over 100 µM; in the assay on KM12 colon, 14.8 µM; with M14 melanoma, 41.9 µM; in the assay with SF-295 CNS, 20.3 µM. In addition, the results for the TGI in the assay on SNB-75 CNS, with TK-10 renal and with UACC-257 melanoma were 6.05 µM, over 100 µM and 13.9 µM, respectively. For the same molecule, the results for the GI50 with COLO 205 colon, in the assay with DU-145 prostate and in the assay with TK-10 renal were 2.02 µM, 13.3 µM and 11.4 µM, respectively.

For the molecule `CCC(C)[C@H](NC(=O)Nc1cc(C(F)(F)F)cc(C(F)(F)F)c1)C(=O)N[C@@H](Cc1cn(C)cn1)C(=O)OC` (stereo partly specified), the GI50 in the assay with BT-549 breast is 0.698 µM; in the assay on CAKI-1 renal it was 2.08 µM; in the assay on COLO 205 colon it was 1.4 µM; with DU-145 prostate it was 1.07 µM; with KM12 colon, 0.788 µM; with M14 melanoma it was 1.11 µM. Further, the GI50 is 1.36 µM in the assay on SF-295 CNS, 0.924 µM in the assay with SNB-75 CNS, 3.65 µM in the assay with TK-10 renal and 1.3 µM in the assay on UACC-257 melanoma. Besides, the TGI in the assay with BT-549 breast worked out at 1.68 µM; in the assay with CAKI-1 renal, 4 µM; in the assay on COLO 205 colon, 1.89 µM; in the assay with DU-145 prostate, 1.83 µM; with KM12 colon, 1.83 µM; with M14 melanoma it was 1.98 µM. Besides, the TGI turned out to be 1.95 µM in the assay with SF-295 CNS, 1.82 µM in the assay with SNB-75 CNS and 1.85 µM in the assay on UACC-257 melanoma.

For `CCOC(=O)c1cc2c(cc1Cl)SC(=Nc1ccccc1)N(S(=O)(=O)c1ccc(Cl)cc1)S2(=O)=O`, the GI50 in the assay on BT-549 breast was 14.5 µM; in the assay on CAKI-1 renal, 15.7 µM; with COLO 205 colon, 9.06 µM; with DU-145 prostate it was 17.3 µM; in the assay with KM12 colon, 15.1 µM; with M14 melanoma, 11.2 µM. Also, the GI50 in the assay with SF-295 CNS was 19.5 µM; in the assay on SNB-75 CNS, 38.2 µM; in the assay with TK-10 renal, 16.8 µM; in the assay with UACC-257 melanoma, 17.6 µM. For the same molecule, the TGI is 30.4 µM in the assay with BT-549 breast; 33.7 µM with CAKI-1 renal; over 100 µM in the assay with COLO 205 colon; 31 µM in the assay on DU-145 prostate; 30.4 µM with KM12 colon; 26 µM with M14 melanoma. Further, the TGI was 48.6 µM in the assay on SF-295 CNS, over 100 µM in the assay with SNB-75 CNS, 32.3 µM in the assay with TK-10 renal and 40.3 µM in the assay with UACC-257 melanoma.

Regarding `CCN(Cc1ccccc1)C1CCN(Cc2cc(Br)ccc2O)CC1`, the GI50 in the assay on BT-549 breast is 44.4 µM; in the assay with CAKI-1 renal it was 57.9 µM; in the assay with COLO 205 colon, 17 µM; in the assay with DU-145 prostate, over 100 µM; with KM12 colon, 42.3 µM; in the assay with M14 melanoma, 20.7 µM. Besides, the GI50 was 25.6 µM with SF-295 CNS, 27.5 µM in the assay with SNB-75 CNS, over 100 µM in the assay on TK-10 renal and 26 µM in the assay on UACC-257 melanoma. Besides, the TGI in the assay with BT-549 breast is over 100 µM; in the assay on CAKI-1 renal it was over 100 µM; in the assay on COLO 205 colon, 39.6 µM; in the assay on DU-145 prostate, over 100 µM; with KM12 colon, over 100 µM; in the assay on M14 melanoma, 54.5 µM. In addition, the TGI with SF-295 CNS, in the assay on SNB-75 CNS, with TK-10 renal and with UACC-257 melanoma was over 100 µM throughout.

Regarding `C[C@]12CC[C@H]3[C@@H](CC=C4C[C@@H](N5CCCC5)CC[C@@]43C)[C@@H]1C/C(=C\c1cccc(OCCN3CCOCC3)c1)[C@@H]2O`, the GI50 in the assay on BT-549 breast was 2.33 µM; in the assay with CAKI-1 renal, 6.91 µM; with COLO 205 colon, 3.89 µM; in the assay with DU-145 prostate, 1.85 µM; in the assay on KM12 colon, 5.02 µM; with M14 melanoma it was 1.96 µM. Moreover, the GI50 in the assay on SF-295 CNS was 2.96 µM; with SNB-75 CNS, 14.6 µM; with TK-10 renal, 4.15 µM; in the assay with UACC-257 melanoma, 2.55 µM. For the same molecule, the TGI in the assay with BT-549 breast is over 100 µM; with CAKI-1 renal, over 100 µM; in the assay on COLO 205 colon, 39.3 µM; in the assay with DU-145 prostate it was over 100 µM; in the assay with KM12 colon, over 100 µM; in the assay with M14 melanoma it was 4.07 µM. In addition, the TGI in the assay on SF-295 CNS was over 100 µM; with SNB-75 CNS, 34.3 µM; in the assay on TK-10 renal it was 46.7 µM; in the assay with UACC-257 melanoma it was 6.65 µM.

In the case of `O=S(=O)(NNc1ccccc1)c1ccccc1`, the TGI with BT-549 breast is 44.2 µM; with CAKI-1 renal, 13.5 µM; with COLO 205 colon, 22.3 µM; with DU-145 prostate, 34.3 µM; with KM12 colon, 18.1 µM; with M14 melanoma it was 17.3 µM. Further, the TGI in the assay with SF-295 CNS is 25.4 µM; in the assay on SNB-75 CNS, over 100 µM; in the assay on TK-10 renal, over 100 µM; in the assay on UACC-257 melanoma, over 100 µM.
